Results from ChEMBL document CHEMBL3301472, “MMV Malaria Box HIV and cytotoxicity screening”.

Experiments:
[1] = system: Human immunodeficiency virus 1; test: MMV: HIV JRFL CCR5-tropic replication-competent virus, virus & compound washed out Day 1 pi, P24 ELISA Day 7 pi, U87-CD4-CCR5, % inhibition at 5 mM compound; format: functional; set-up: dose or concentration left out as unconfirmed; conditions: Human immunodeficiency virus 1, JR-FL
[2] = MMV: MTT Cytotoxicity Assay Day 7 pi of Assay #7 (compound washed out Day 1 pi), U87-CD4-CXCR4 cells, % cell death @ 5mM compound; format: toxicity, cell-based; conditions: human, u87-cd4-cxcr4, 5000 µM
[3] = MMV: MTT Cytotoxicity Assay Day 3 pi, U87-CD4-CCR5 cells, % cell death @ 5mM compound; format: toxicity, cell-based; conditions: human, u87-cd4-ccr5, 5000 µM
[4] = MMV: MTT Cytotoxicity Assay Day 7 pi of Assay #11 (NO washout), U87-CD4-CXCR4 cells, % cell death @ 5mM compound; format: toxicity, cell-based; conditions: human, u87-cd4-cxcr4, 5000 µM
[5] = MMV: MTT Cytotoxicity Assay Day 7 pi of Assay #10 (NO washout), U87-CD4-CCR5 cells, % cell death @ 5mM compound; format: toxicity, cell-based; conditions: human, u87-cd4-ccr5, 5000 µM
[6] = MMV: MTT Cytotoxicity Assay Day 7 pi of Assay #6 (compound washed out Day 1 pi), U87-CD4-CCR5 cells, % cell death @ 5mM compound; format: toxicity, cell-based; conditions: human, u87-cd4-ccr5, 5000 µM
[7] = MMV: MTT Cytotoxicity Assay Day 3 pi, U87-CD4-CXCR4 cells, % cell death @ 5mM compound; format: toxicity, cell-based; conditions: human, u87-cd4-cxcr4, 5000 µM

Structure (SMILES) | inhibition [1] [%] | % Cell Death [2] | % Cell Death [3] | % Cell Death [4] | % Cell Death [5] | % Cell Death [6] | % Cell Death [7]
CCCOCc1cc(CN2CCN(c3cccc(Cl)c3)CC2)c(O)c2ncccc12 | 9 | -7 | 24 | -57 | 15 | -8 | 31
O=C(NCC(c1ccsc1)N1CCCCCC1)c1ccc(C(F)(F)F)cc1 (centres undefined) | 1 | -26 | 10 | 12 | 19 | 12 | 23
COc1ccc(N2CCN(C(CNC(=O)C3CCCCC3)c3ccc4c(c3)OCO4)CC2)cc1 (centres undefined) | 10 | 6 | 17 | 71 | 38 | 25 | 63
Cc1ccc(-c2cc(C(=O)Nc3ccc(S(=O)(=O)N4CCCCC4)cc3)[nH]n2)c(O)c1 | 6 | -29 | -5 | 16 | 10 | 18 | 11
CC(O)(c1ccc(Cl)cc1)C(CN1CCCCC1)c1ccccc1.Cl (centres undefined) | 3 | -24 | -11 | -5 | 19 | 24 | 3
COc1ccc(-c2nc(NC(=O)CS(=O)(=O)c3ccc(F)cc3)sc2C)cc1 | -1 | 9 | 41 | 71 | 10 | -7 | 29
O=C(Nc1cccc(-c2nc3ccccc3[nH]2)c1)c1cccc(NC(=O)c2ccco2)c1 | – | -31 | -8 | -18 | 20 | 11 | 22
CCOc1ccc(/C=C/c2nc(=O)c3ccccc3o2)cc1 | – | -27 | 41 | 10 | 21 | 27 | 31
Cc1ccc(CN2CCC(C(=O)Nc3ccc(-c4cc5ccccc5[nH]4)cc3)CC2)o1 | – | 20 | 33 | 22 | 65 | 31 | 20
CCOC(=O)c1ccc2[nH]c(-c3ccccc3)cc(=O)c2c1 | – | 96 | 104 | 99 | 129 | 98 | 99
CC(=O)NCCc1nc2ccccc2n1Cc1ccc(C(C)C)cc1 | – | -3 | -2 | 14 | 13 | 34 | 15
O=C1c2ccccc2-c2nnc(-c3ccc(Br)cc3)cc21 | – | 4 | 2 | -24 | 24 | 1 | 16
CCCCN(CCCC)S(=O)(=O)c1ccc(NC(=O)c2ccco2)cc1 | – | 41 | 58 | 39 | 74 | 36 | 45
O=C(c1ccccc1F)N(Cc1ccc(Cl)cc1)c1ccccn1 | – | -34 | 50 | 71 | 87 | 22 | 44
Cc1cc(Nc2ccc(C)c(Cl)c2)n2nc(C(F)(F)F)nc2n1 | – | -28 | 11 | 10 | 42 | -35 | 28
COc1ccc(Nc2cc(C)nc(NCc3ccccc3)n2)cc1 | – | 30 | 41 | 73 | 92 | 30 | 94
Cc1cc(Nc2ccc(OCc3ccccc3)cc2)nc2cc(O)ccc12 | – | 6 | 23 | -7 | -10 | 18 | -46
COc1ccc(C=C2SC(=N)N(c3ccccc3OC)C2=O)cc1 | – | 95 | 100 | 93 | 143 | 100 | 101
O=C(NNc1cc(N2CCCC2)nc(N2CCCC2)n1)c1ccccc1 | – | 53 | 61 | 8 | 27 | 15 | 29
CCOc1ccc2c(c1)CN(Cc1ccc(Cl)cc1)CO2 | – | -14 | 8 | 20 | 13 | 11 | 32
COc1nc(Nc2ccc(C(C)C)cc2)nc(OC)n1 | – | -7 | -1 | 24 | 33 | 33 | 32
CN1c2ccccc2N(C)C1c1ccc2c(c1)OCO2 | – | 16 | -7 | -2 | 1 | 10 | 3
CCOc1cc(CNC(C)C(O)c2ccccc2)cc(Cl)c1OCC (centres undefined) | – | 25 | 40 | 73 | 67 | 32 | 89
CCOc1c(Cl)cc(CNCC(O)c2ccccc2)cc1OC (centres undefined) | – | -17 | 14 | -40 | 2 | 20 | 21
O=C(Nc1ccc(CN2CCOCC2)cc1)c1ccc(-c2ccc(Br)cc2)o1 | – | -2 | 20 | 6 | 96 | 14 | 15
COc1ccccc1CNC(=O)CCn1c(=O)[nH]c2ccsc2c1=O | – | -19 | 34 | -15 | -16 | -12 | 10
COCCNCC(O)Cn1c2ccc(Cl)cc2c2cc(Cl)ccc21 (centres undefined) | – | -16 | 29 | 15 | 28 | 14 | 30
COc1ccccc1CNC(=O)C1c2ccccc2C(=O)N(CC(C)C)C1c1cccs1 (centres undefined) | – | -8 | 108 | 43 | 60 | 67 | 23
